Experimental data reported in patent US20210164992A1, “COMPOSITIONS AND METHODS RELATED TO INNATE RESPONSE TO DNA AND REGULATION OF INTERFERON-BETA” (priority 2018, published 2021).

How the values were obtained:
HCMV = HCMV reproduction and spread in NHDFs, virus titer (TCID/50); type: cell-based, human cytomegalovirus; settings: 1 μM JAK inhibitor (Pyridone 6) vs DMSO
IFNB1 mRNA [1] = experiment: IFNB1 mRNA abundance in response to dsDNA in siRNA-treated NHDFs with or without JAK inhibitor (qRT-PCR); type: cell-based, human; settings: NHDFs transfected with dsDNA, JAK inhibitor (Pyridone 6) vs DMSO (FIG. 5A)
cellular m^6A effectors = experiment: HCMV-induced accumulation of cellular m^6A effector proteins in NHDFs (immunoblotting); type: cell-based, human; settings: NHDFs infected with HCMV (MOI=3); PP242 25 μM vs DMSO (FIG. 1E)
IFNB1 mRNA [2] = experiment: dsDNA-induced IFNB1 mRNA accumulation in primary human fibroblasts (RT-PCR), Rhein treatment; type: cell-based; settings: primary human fibroblasts transfected with dsDNA, measured after 9 h; Rhein added 24 h prior to or at time of transfection; vs DMSO vehicle (FIG. 16)

## CC(C)(C)c1nc2c3cc[nH]c(=O)c3c3cc(F)ccc3c2[nH]1 [JAK inhibitor, Pyridone 6]
HCMV; MOI=0.05, 7 d (FIG. 2D)
  increase of HCMV reproduction in control siRNA-treated cultures: less than 10 fold
HCMV; MOI=0.05, 7 d, compared to control siRNA levels (FIG. 2D)
  HCMV reproduction in METTL14 siRNA-treated cultures: to a large extent restored HCMV reproduction
IFNB1 mRNA [1]
  kinetics of IFNB1 mRNA accumulation: faster

## CC(C)n1nc(-c2cc3cc(O)ccc3[nH]2)c2c(N)ncnc21 [PP242]
Cellular m^6A effectors
  HCMV-induced increase in cellular m^6A effectors: repressed

## O=C(O)c1cc(O)c2c(c1)C(=O)c1cccc(O)c1C2=O [Rhein]
IFNB1 mRNA [2]
  IFNB1 mRNA production: dose-dependent inhibition of IFNB1 mRNA production
